Test results as given in patent US20220096862A1, “METHOD FOR IRRADIATING CELLS WITH LIGHT, METHOD FOR CONTROLLING MEDICAL DEVICE, AND MEDICAL DEVICE” (OLYMPUS CORPORATION, priority 2019, published 2022).

How the values were obtained:
[1] = system: A431 tumor bearing mice; test: Rates of damage of tumor tissues from pathological images after irradiation at different light intensities (PIT), FIG. 5; format: in vivo; conditions: 300 μg/mouse, irradiated one day after administration, total amount 100 J/cm^2, 25 mW/cm^2 or 50 mW/cm^2 compared with 100 mW/cm^2 or 300 mW/cm^2, tumors excised after one more day
Protocol: Pan-IR700, which is the photosensitizing agent 20, is administered to the A431 tumor bearing mice at 300 μg/mouse. One day after the administration of Pan-IR700, the cells C are irradiated with light of respective irradiation intensities shown in FIG. 5 up to the same total amount (100 J/cm^2). After one more day, tumor tissues are excised, and rates of damage of the tissues are calculated from pathological images of cross sections of the tumors.

[2] = system: A431 tumor bearing mice; test: Percentage of attenuation of fluorescence versus cellular cytotoxicity after therapeutic light irradiation (PIT), FIG. 4; format: in vivo
Protocol: The total amount of irradiation is the same in both the case where irradiation is performed with the therapeutic light L with the light intensity of 50 mW/cm^2 or less and the case where irradiation is performed with the therapeutic light L with the light intensity of 100 mW/cm^2 or more. In other words, in the case where irradiation is performed with the therapeutic light L with the light intensity of 50 mW/cm^2 or less, a time period during which the cells C are irradiated is longer than a time period during which the cells C are irradiated with the therapeutic light L with the light intensity of 100 mW/cm^2 or more.
After the cells C are irradiated with the therapeutic light L, if the rate of reduction of fluorescence (the percentage of attenuation of fluorescence) and cellular cytotoxicity have a proportional relation, as shown by a dashed-and-dotted line A in FIG. 4, when the rate of reduction of fluorescence is 100%, cellular cytotoxicity is 100%. Therefore, it should be determined that all cells C disappear if fluorescence is no longer detected.
How ever, as the result of experiments performed by the applicant, the following is found. In actual experiments, as the result of observation that is performed after irradiation, by using the endoscope 1, for example, as the rate of reduction of fluorescence approaches 70% (or little more than 70%), cellular cytotoxicity approaches 100%.

**Q.** With “Pan-IR700: phthalocyanine fluorescent dye (IRDye 700) attached to one antibody molecule (panitumumab, monoclonal antibody to Human EGFR)” as the substance, how does the “cellular cytotoxicity (rates of damage of the tissues)” value [1] read?
**A.** greater

**Q.** And the cellular cytotoxicity ([2]; as the rate of reduction of fluorescence approaches 70% (or little more than 70%), after irradiation with therapeutic light L, FIG. 4)?
**A.** ~100%

**Q.** What about the “relationship of reduction of fluorescence and cellular cytotoxicity” value ([2]; therapeutic light L with light intensity of 50 mW/cm^2 or less (solid line B, FIG. 4)) of the same substance?
**A.** linear relationship

**Q.** And the “rate of cellular cytotoxicity” value ([2]; therapeutic light L with light intensity of 100 mW/cm^2 or more (solid line D, FIG. 4), reduction of fluorescence also found)?
**A.** low
